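Growth conditions: 96-well plates. Treatment: test compound, 48 hours, 5 concentrations. Analysis: linear interpolation between bracketing concentrations; unreached endpoints set to highest concentration. TGI: concentration producing complete growth inhibition.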
Tests used:
Test in all cases: growth of human tumour cells (NCI), 48 h
U251 CNS = tested on: U251 CNS
UACC-62 melanoma = tested on: UACC-62 melanoma
SR leukemia = tested on: SR leukemia
SF-268 CNS = tested on: SF-268 CNS
HS 578T breast = tested on: HS 578T breast
A549 NSCLC = tested on: A549 NSCLC
HOP-92 NSCLC = tested on: HOP-92 NSCLC
MALME-3M melanoma = tested on: MALME-3M melanoma
NCI/ADR-RES ovarian = tested on: NCI/ADR-RES ovarian
KM12 colon = tested on: KM12 colon
MDA-MB-231 breast = tested on: MDA-MB-231 breast
SF-539 CNS = tested on: SF-539 CNS
SNB-75 CNS = tested on: SNB-75 CNS

Structure (SMILES): Cc1cc(C)cc(C(=N)c2ccccc2Cc2cccc3ccccc23)c1
- TGI (U251 CNS): > 100 µM
- TGI (UACC-62 melanoma): 29 µM
- TGI (SR leukemia): 41.3 µM
- TGI (SF-268 CNS): 34.9 µM
- TGI (HS 578T breast): 21.7 µM
- TGI (A549 NSCLC): 42.4 µM
- TGI (HOP-92 NSCLC): 29 µM
- TGI (MALME-3M melanoma): 33.4 µM
- TGI (NCI/ADR-RES ovarian): 46.3 µM
- TGI (KM12 colon): 24 µM
- TGI (MDA-MB-231 breast): > 100 µM
- TGI (SF-539 CNS): 30 µM

Structure (SMILES): COC1=C(Br)[C@H](O)[C@@]2(C=C1Br)CC(C(=O)NCCCCCN=C(N)N)=NO2
- TGI (U251 CNS): > 10 µM
- TGI (UACC-62 melanoma): > 10 µM
- TGI (SR leukemia): > 10 µM
- TGI (SF-268 CNS): > 10 µM
- TGI (HS 578T breast): > 10 µM
- TGI (A549 NSCLC): > 10 µM
- TGI (MALME-3M melanoma): > 10 µM
- TGI (NCI/ADR-RES ovarian): > 10 µM
- TGI (SNB-75 CNS): > 10 µM
- TGI (KM12 colon): > 10 µM
- TGI (MDA-MB-231 breast): > 10 µM
- TGI (SF-539 CNS): > 10 µM

Structure (SMILES): COc1cc(/C=C2\C[C@H]3[C@@H]4CC=C5C[C@@H](O)CC[C@]5(C)[C@H]4CC[C@]3(C)C2=O)cc(OC)c1OC
- TGI (U251 CNS): > 100 µM
- TGI (UACC-62 melanoma): > 100 µM
- TGI (SF-268 CNS): > 100 µM
- TGI (HS 578T breast): > 100 µM
- TGI (A549 NSCLC): > 100 µM
- TGI (HOP-92 NSCLC): > 100 µM
- TGI (MALME-3M melanoma): > 100 µM
- TGI (NCI/ADR-RES ovarian): > 100 µM
- TGI (SNB-75 CNS): 96.3 µM
- TGI (KM12 colon): > 100 µM
- TGI (MDA-MB-231 breast): 81.1 µM
- TGI (SF-539 CNS): > 100 µM

Structure (SMILES): O=C1c2cc3c(cc2CC12Cc1cc4c(cc1C2=O)CCC4)CCCC3 (centres undefined)
- TGI (U251 CNS): > 100 µM
- TGI (SR leukemia): > 100 µM
- TGI (SF-268 CNS): > 100 µM
- TGI (HS 578T breast): > 100 µM
- TGI (A549 NSCLC): > 100 µM
- TGI (HOP-92 NSCLC): > 100 µM
- TGI (MALME-3M melanoma): > 100 µM
- TGI (NCI/ADR-RES ovarian): > 100 µM
- TGI (SNB-75 CNS): > 100 µM
- TGI (MDA-MB-231 breast): > 100 µM
- TGI (SF-539 CNS): > 100 µM

Structure (SMILES): COc1ccc2c(c1C)C(=O)C(O)(CC=C(C)C)O2 (centres undefined)
- TGI (U251 CNS): > 100 µM
- TGI (UACC-62 melanoma): > 100 µM
- TGI (SR leukemia): > 100 µM
- TGI (SF-268 CNS): > 100 µM
- TGI (HS 578T breast): > 100 µM
- TGI (A549 NSCLC): > 100 µM
- TGI (MALME-3M melanoma): > 100 µM
- TGI (NCI/ADR-RES ovarian): > 100 µM
- TGI (SNB-75 CNS): > 100 µM
- TGI (KM12 colon): > 100 µM
- TGI (MDA-MB-231 breast): > 100 µM
- TGI (SF-539 CNS): > 100 µM

Structure (SMILES): Cc1cccc2c1[C@]13OC(C)[C@]4(C)CC5OC(=O)[C@@]1(C)[C@@H]5[C@]34C(=O)O2 (some centres undefined)
- TGI (U251 CNS): > 100 µM
- TGI (UACC-62 melanoma): > 100 µM
- TGI (SR leukemia): > 100 µM
- TGI (SF-268 CNS): > 100 µM
- TGI (HS 578T breast): > 100 µM
- TGI (A549 NSCLC): > 100 µM
- TGI (MALME-3M melanoma): > 100 µM
- TGI (NCI/ADR-RES ovarian): > 100 µM
- TGI (SNB-75 CNS): > 100 µM
- TGI (KM12 colon): > 100 µM
- TGI (MDA-MB-231 breast): > 100 µM
- TGI (SF-539 CNS): > 100 µM

Structure (SMILES): CCN1c2nc3ccccc3nc2N(CC)c2nc3ccccc3nc21
- TGI (U251 CNS): > 100 µM
- TGI (UACC-62 melanoma): > 100 µM
- TGI (SR leukemia): > 100 µM
- TGI (SF-268 CNS): > 100 µM
- TGI (HS 578T breast): > 100 µM
- TGI (A549 NSCLC): > 100 µM
- TGI (MALME-3M melanoma): > 100 µM
- TGI (NCI/ADR-RES ovarian): > 100 µM
- TGI (KM12 colon): > 100 µM
- TGI (MDA-MB-231 breast): > 100 µM
- TGI (SF-539 CNS): 94 µM

Structure (SMILES): CCN(CC)/C(Cl)=C(Cl)\C(=C1\Nc2ccc(OC)cc21)[N+](=O)[O-]
- TGI (U251 CNS): > 100 µM
- TGI (UACC-62 melanoma): > 100 µM
- TGI (SR leukemia): 65 µM
- TGI (SF-268 CNS): > 100 µM
- TGI (HS 578T breast): > 100 µM
- TGI (A549 NSCLC): > 100 µM
- TGI (HOP-92 NSCLC): > 100 µM
- TGI (MALME-3M melanoma): > 100 µM
- TGI (NCI/ADR-RES ovarian): > 100 µM
- TGI (SNB-75 CNS): 81.8 µM
- TGI (KM12 colon): > 100 µM
- TGI (MDA-MB-231 breast): > 100 µM

Source: PubChem BioAssay (NCI)
